Results published in patent publication US8053585B2, “Protecting group for carboxylic acids that can be photolyzed by visible light” (Cornell Research Foundation, Inc., priority 2006, dated 2011).

Assays:
Format in all cases: cell-based
GluR6 glutamate receptor = test: Stability in aqueous solution by whole-cell recording, cells used as glutamate detector; conditions: 2 mM solution, 24 h in the dark at −20° C., pH 7.4
Text: (§1) In whole-cell current recording experiments with DECM-caged glutamate, HEK 293 cells stably transfected with cDNA encoding the GluR6 were used. In whole-cell current recording experiments with DECM-caged glycine, HEK 293 cells were transiently transfected with the cDNA of the α1-subunit of the human glycine receptor by using the Polyfect™ transfection reagent (Qiagen GmbH, D-40724, Hilden, Germany). The cDNA of the α1-subunit was kindly provided by Professor H. Betz (Max-Plank-Institute for brain Research, Frankfurt, Germany). The cells were co-transfected with cDNA encoding the green fluorescent protein (pGreen Lantern plasmid, Life Technologies, Gaitherberg, Md.) to detect transfected cells (Chalfie et al., “Green Fluorescent Protein as a Marker for Gene Expression,” Science 263:802-805 (1994), which is hereby incorporated by reference in its entirety).
(§2) The cells were used for electrophysiological experiments between 24 and 72 h after each passage. Whole-cell currents evoked by glutamate or glycine (100 μM) were recorded using the whole-cell configuration (Hamill et al., “Improved Patch-Clamp Techniques for High-Resolution Current Recording From Cells and Cell-Free Membrane Patches,” Pfluegers Arch 391:85-100 (1981), which is hereby incorporated by reference in its entirety) at room temperature, −60 mV, and pH 7.4. […]

[1] = target: T1, α1-subunit of the human glycine receptor (Homo sapiens, UniProt P23415); test: Flash lamp photolysis of DECM-caged glycine on HEK 293 cells; conditions: 1 mM caged compound
T1 construct: expressed in transfected cells; host or cells: HEK 293 cells, transiently transfected (Polyfect), co-transfected with GFP plasmid as marker; cDNA from Prof; H. Betz
T1 sequence (P23415 29-457): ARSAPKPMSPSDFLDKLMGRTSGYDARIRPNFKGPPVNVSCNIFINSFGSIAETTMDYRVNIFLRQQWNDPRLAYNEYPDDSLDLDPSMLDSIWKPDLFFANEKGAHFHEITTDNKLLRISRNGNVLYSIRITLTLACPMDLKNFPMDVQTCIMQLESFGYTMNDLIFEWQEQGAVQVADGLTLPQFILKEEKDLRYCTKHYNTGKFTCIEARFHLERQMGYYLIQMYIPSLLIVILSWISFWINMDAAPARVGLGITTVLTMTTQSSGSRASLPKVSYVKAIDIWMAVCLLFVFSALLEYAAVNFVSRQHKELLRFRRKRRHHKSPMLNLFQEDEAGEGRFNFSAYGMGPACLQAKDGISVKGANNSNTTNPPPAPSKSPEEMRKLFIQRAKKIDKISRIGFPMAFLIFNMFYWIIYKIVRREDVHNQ
Protocol: The cells were used for electrophysiological experiments between 24 and 72 h after each passage. Whole-cell currents evoked by glutamate or glycine (100 μM) were recorded using the whole-cell configuration (Hamill et al., “Improved Patch-Clamp Techniques for High-Resolution Current Recording From Cells and Cell-Free Membrane Patches,” Pfluegers Arch 391:85-100 (1981), which is hereby incorporated by reference in its entirety) at room temperature, −60 mV, and pH 7.4. The experiments using DECM-caged glutamate were carried out in the absence or presence of 2 mM DECM-caged glutamate (FIG. 5A) or 1 mM 7-N,N-diethylamino-4-hydroxymethylcoumarin (2) (FIG. 5B). Alternatively, the experiments using DECM-caged glycine were carried out in the absence or presence of 1 mM DECM-caged-glycine (FIG. 10). The solution in the recording pipet contained 120 mM CsCl, 10 mM EGTA, and 10 mM HEPES, adjusted to pH 7.4. The HEK cell bath solution contained 150 mM NaCl, 1 mM CaCl2, 10 mM HEPES, pH 7.4. The resistance of the recording electrode filled with buffer solution was typically 3-5 MΩ and the series resistance was 5-6 MΩ. The cells were held at a constant transmembrane voltage of −60 mV and room temperature (22° C.). Whole-cell currents were amplified by using an Axopatch 200B (Axon Instruments, Foster City, Calif.) amplifier and filtered at 1-5 kHz by using a […], low-pass, Bessel (Dagan Corporation, Minneapolis, Minn.) filter incorporated in the amplifier. The filtered signal was digitized by a Digidata 1322A (Axon Instruments, Union City, Calif.) or a Labmaster DMA 100 KHz digitizing board (Scientific Solutions, Mentor, Ohio) controlled by pCLAMP9 software (Axon Instruments).
The light produced by the Rapp (Rapp OptoElectronics, Hamburg, Germany) xenon flash lamp (SP-20) was coupled into an optical fiber (600 μm internal diameter), which delivered the light to the cell. The concentration of DECM-caged-glycine used was 1 mM for the results in FIG. 11. Typical light energies were 150-250 μJ per pulse. […] Data were analyzed with Microcal Origin3.5 software (Microcal, Northampton, Mass.).

[2] = target: T2, α1-subunit human glycine receptor (Homo sapiens, UniProt P23415); test: Stability in aqueous solution by whole-cell current recording, cells used as glycine detector; conditions: 1 mM solution, 20 hours in the dark, pH 7.4
T2 construct: expressed in transfected cells; host or cells: HEK 293 cells, transiently transfected (Polyfect), co-transfected with GFP plasmid as marker; cDNA from Prof; H. Betz
T2 sequence (P23415 29-457): T1 sequence (P23415 29-457)
Text: as §1, §2

Row | free glutamate in solution of caged compound (GluR6 glutamate receptor) | Structure (SMILES) | concentration of liberated glycine ([1]; flash-lamp light pulse, 250 μJ) | I∞, current at t=∞ ([1]; −60 mV, pH 7.4, 22° C.) | kobs, apparent pseudo first-order rate constant of the current rise ([1]; −60 mV, pH 7.4, 22° C.) | free glycine in solution of caged compound [2]
1 | no free glutamate was detected | CCN(CC)c1ccc2c(COC(=O)CCC(N)C(=O)O)cc(=O)oc2c1 (centres unmarked) [DECM-caged glutamate, (7-N,N-Diethylaminocoumarin-4-yl)-methyl-glutamate-trifluoroacetate] |  |  |  | 
2 |  | CCN(CC)c1ccc2c(COC(=O)CN)cc(=O)oc2c1 [DECM-caged glycine, (7-N,N-Diethylaminocoumarin-4-yl)-methyl-glycine-trifluoroacetate] | 60 µM | −4950±57 pA | 125 ± 16 s⁻¹ | no free glycine was detected
